Test results taken from patent publication US10774109B2, “Crystal of reduced glutathione and method for producing same” (KYOWA HAKKO BIO CO., LTD., priority 2016, dated 2020).

Columns and labels:
[1] = Loose specific volume (Multi Tester MT-1001T); format: physicochemical; conditions: for Difference in specific volume: loose minus dense specific volume; for Loose specific volume: α-type crystal
Procedure: Here, the “loose specific volume” refers to a value which is obtained by dividing a volume occupied by a powder by a mass when the powder is filled in a container and the mass of the powder is measured.
[Measurement Conditions for Loose Specific Volume]
Vibration width: 0.6 to 0.7 mm

[2] = Dense specific volume (Multi Tester MT-1001T); format: physicochemical; conditions: α-type crystal; 200 taps
Procedure: Here, the “dense specific volume” refers to a value which is obtained by dividing a volume occupied by a powder by a mass when the powder is filled in a container and the mass of the powder is measured, and thereafter a given impact is applied to the container.
[Measurement Conditions for Dense Specific Volume]

[3] = Crystal thickness by scanning electron microscope; format: physicochemical; conditions: α-type crystal
From the text: In this description, when a crystal is ascertained three-dimensionally using a microscope, the longest axis is referred to as “longitudinal axis”, and an axis perpendicular to the longitudinal axis is referred to as “lateral axis” (FIG. 2). Further, the length in the longitudinal axis direction of a crystal, the major axis of the cross section of the lateral axis, and the minor axis of the cross section of the lateral axis are referred to as “crystal length”, “crystal width”, and “crystal thickness”, respectively (see FIG. 2), and the averages thereof are referred to as “average length”, “average width”, and “average thickness”, respectively.
The crystal thickness can be measured, for example, using a scanning electron microscope [JSM-6510 (manufactured by JEOL Ltd.)] at a measurement magnification of 250 to 1000 times. For example, as for 50 crystals, crystals whose longitudinal axis is perpendicular to the scanning electron microscope field of view are selected, and the thickness of each crystal is measured (FIG. 2, right drawing), and the average thickness T is measured. A sample is fixed to an aluminum sample stand with a carbon double-sided tape.

[4] = Angle of rupture (Multi Tester MT-1001T)
[5] = compared with Comparative Example
From the text: FIG. 1 illustrates the change in loose specific volume over time when crystals of reduced glutathione obtained in Example 3 and Comparative Example were pulverized. The vertical axis represents the loose specific volume (mL/g), and the horizontal axis represents the pulverization time (min).
The crystal of reduced glutathione of the present invention can be produced by further pulverizing the crystal of reduced glutathione of the present invention obtained by the above-mentioned method. The pulverization of the crystal can be performed, for example, using Osterizer Oster Vintage Blender 16-speed Dual Range (Osterizer OSTER) under the following conditions.
[Conditions for Pulverization of Crystal]
Sample feeding amount: 20 g/feed
The α-type crystals of reduced glutathione obtained in Example 3 and Comparative Example were pulverized, and the change in loose specific volume over time was measured.

[6] = Angle of repose (Multi Tester MT-1001T)

SMILES | Difference in specific volume [1] | Loose specific volume [1] | Dense specific volume [2] | Average crystal thickness T [3] | Angle of rupture ([4]; After pulverization) | Angle of rupture ([4]; Before pulverization) | loose specific volume during pulverization ([5]; all pulverization times) | pulverization behaviour (speed of pulverization, convergence of specific volume) ([5]; FIG. 1) | Angle of repose ([6]; After pulverization) | Angle of repose ([6]; Before pulverization) | flowability ([6]; from Table 3, before and after pulverization)
N[C@@H](CCC(=O)N[C@@H](CS)C(=O)NCC(=O)O)C(=O)O [Example 1, reduced glutathione] | 0.62 mL/g | 1.88 mL/g | 1.26 mL/g | 17.0 μm | – | – | – | – | – | – | –
N[C@@H](CCC(=O)N[C@@H](CS)C(=O)NCC(=O)O)C(=O)O [Commercially available product B, reduced glutathione] | 2.61 mL/g | 5.50 mL/g | 2.88 mL/g | – | – | – | – | – | – | – | –
N[C@@H](CCC(=O)N[C@@H](CS)C(=O)NCC(=O)O)C(=O)O [Example 2, reduced glutathione] | 0.71 mL/g | 2.00 mL/g | 1.29 mL/g | 16.7 μm | – | – | – | – | – | – | –
N[C@@H](CCC(=O)N[C@@H](CS)C(=O)NCC(=O)O)C(=O)O [Commercially available product A, reduced glutathione] | 2.20 mL/g | 4.69 mL/g | 2.49 mL/g | 1.9 μm | – | – | – | – | – | – | –
N[C@@H](CCC(=O)N[C@@H](CS)C(=O)NCC(=O)O)C(=O)O [Example 3, reduced glutathione] | 0.71 mL/g | 2.00 mL/g | 1.29 mL/g | 16.7 μm | 31.1 ° | 39.4 ° | smaller | pulverized more promptly | 37.4 ° | 42.4 ° | the flowability is high
N[C@@H](CCC(=O)N[C@@H](CS)C(=O)NCC(=O)O)C(=O)O [Comparative Example, reduced glutathione] | 1.48 mL/g | 3.42 mL/g | 1.95 mL/g | 5.5 μm | 41.5 ° | 46.8 ° | – | – | 51.8 ° | 51.4 ° | –
